Common to all, as to format: in vivo
For one assay, the system named is Ctenocephalides felis. As to the kind of experiment: Ctenocephalides felis oral test (CTECFE). The note with it: 48 h, 100 ppm in cattle blood, after 2 days. The procedure:
Ctenocephalides felis—Oral Test (CTECFE)
(§1) Solvent: dimethyl sulfoxide
To produce a suitable preparation of active compound, 10 mg of active compound are dissolved in 0.5 ml solvent, and the concentrate is diluted with cattle blood to the desired concentration.
Approximately 20 adult unfed cat fleas (Ctenocephalides felis) are placed in flea chambers. The blood chamber, sealed with parafilm on the bottom, are filled with cattle blood supplied with compound solution and placed on the gauze covered top of the flea chamber, so that the fleas are able to suck the blood. The blood chamber is heated to 37° C. whereas the flea chamber is kept at room temperature.
After 2 days mortality in % is determined. 100% means all the fleas have been killed; 0% means none of the fleas have been killed.

A further assay relates to Boophilus microplus. As to the kind of experiment: Boophilus microplus injection test (BOOPMI Injection). Conditions: Rhipicephalus microplus, 168 h, injection into adult engorged female ticks, egg deposition after 7 days, read-out: activity (efficacy, infertile eggs); for pest or weed control at 0.02 mg: 20 μg/animal; for pest or weed control at 0.004 mg: 4 μg/animal. The procedure:
Boophilus microplus—Injection Test (BOOPMI Injection)
as §1
To produce a suitable preparation of active compound, 10 mg of active compound are dissolved in 0.5 mL solvent, and the concentrate is diluted with solvent to the desired concentration.
Five adult engorged female ticks (Boophilus microplus) are injected with 1 μL compound solution into the abdomen. The ticks are transferred into replica plates and incubated in a climate chamber.
After 7 days egg deposition of fertile eggs is monitored. Eggs where fertility is not visible are stored in a climate chamber till hatching after about 42 days. An efficacy of 100% means all eggs are infertile; 0% means all eggs are fertile.

The next assay relates to Diabrotica balteata. Briefly: Diabrotica balteata spray test. Conditions: 168 h, wheat seeds, after 7 days, read-out: activity (efficacy, seedlings grown); for pest or weed control at 160 µg/disc, 500 g/ha: 500 g/ha (=160 μg/well). The procedure:
Diabrotica balteata—Spray Test
Solvent: 78.0 parts by weight of acetone • • 1.5 parts by weight of dimethylformamide
(§2) Emulsifier: alkylarylpolyglycol ether
To produce a suitable preparation of active compound, 1 part by weight of active compound is mixed with the stated amount of solvent, and the concentrate is diluted with water, containing an emulsifier concentration of 1000 ppm, to the desired concentration. Further test concentrations are prepared by dilution with emulsifier containing water.
Soaked wheat seeds (Triticum aestivum) are placed in a multiple well plate filled with agar and some water and are incubated for 1 day to germinate (5 seeds per well). The germinated wheat seeds are sprayed with a test solution containing the desired concentration of the active ingredient. Afterwards each unit is infected with 10-20 larvae of the banded cucumber beetle (Diabrotica balteata).
After 7 days efficacy in % is determined. 100% means all the seedlings have grown up like in the untreated, uninfected control; 0% means none of the seedlings have grown.

Another assay relates to Spodoptera frugiperda. Briefly: Spodoptera frugiperda spray test. The note with it: in Zea mays, 168 h, read-out: activity (mortality). The procedure:
Spodoptera frugiperda—Spray Test
Solvent: 78.0 parts by weight acetone • 1.5 parts by weight dimethylformamide
as §2
To produce a suitable preparation of active compound, 1 part by weight of active compound is mixed with the stated amount of solvents and is diluted with water, containing an emulsifier concentration of 1000 ppm, to the desired concentration. Further test concentrations are prepared by dilution with emulsifier containing water.
Maize (Zea mays) leaf sections are sprayed with a preparation of the active ingredient of the desired concentration. Once dry, the leaf sections are infested with fall armyworm larvae (Spodoptera frugiperda).
After 7 days mortality in % is determined. 100% means all caterpillars have been killed and 0% means none of the caterpillars have been killed.

For assay [1], the system named is Rhipicephalus microplus (strain Parkhurst, resistant against synthetic pyrethroids). Briefly: Rhipicephalus microplus in-vitro contact test, larval cattle tick (BOOPMI Contact). Conditions: 5 μg/cm^2 (=500 g/ha), after 48 hours, read-out: activity (efficacy, larvae dead or moribund). The procedure: Rhipicephalus microplus—in-Vitro Contact Tests Larval Cattle Tick (Strain Parkhurst, Resistant Against Synthetic Pyrethroids) (BOOPMI Contact)
9 mg compound is solved in 1 ml acetone and diluted with acetone to the desired concentration. 250 μL of the test solution is filled in 25 ml glass test tubes and homogeneously distributed on the inner walls by rotation and tilting on a shaking device (2 h at 30 rpm). With a compound concentration of 900 ppm, an inner surface of 44.7 cm^2 and a homogeneous distribution, a dose of 5 μg/cm^2 is achieved.
After the solvent has evaporated, each test tube is filled with 20-50 cattle tick larvae (Rhipicephalus microplus), closed with a perforated lid and incubated in a horizontal position at 85% relative humidity and 27° C. in an incubator. After 48 hours efficacy is determined. The larvae are patted on the ground of the tubes and negative geotactic behaviour is recorded.
An efficacy of 100% means all larvae are dead or moribund; 0% means no larvae are dead or moribund.

Molecules are shown by their SMILES.

The values that follow come from patent US12384769B2, “Heteroaryl-substituted aminoalkyl azole compounds as pesticides” (Elanco Animal Health GmbH, priority 2019, dated 2025).

In the assay on Ctenocephalides felis, `CC(Nc1nc2cc(C(F)(F)F)cc(Cl)c2o1)c1nc(C(F)(F)F)nn1-c1ncccn1` (racemic) [Example I-048, 7-Chlor-N-{(rac)-1-[1-(pyrimidin-2-yl)-3-(trifluormethyl)-1H-1,2,4-triazol-5-yl]ethyl}-5-(trifluormethyl)-1,3-benzoxazol-2-amin] returned a mortality at 100 ppm of 100%.

As for `C[C@H](Nc1nc2cc(Br)cc(Cl)c2o1)c1ncnn1-c1ncccn1` [Example I-010], in the assay on Boophilus microplus, the pest or weed control at 0.02 mg is 100%. Besides, in the assay on Ctenocephalides felis, the mortality at 100 ppm was found to be 100%. For the same compound, in the assay with Diabrotica balteata, the pest or weed control at 100 g/ha is 80% and the pest or weed control at 160 µg/disc, 500 g/ha was found to be 100%. Moreover, the mortality at 500 g/ha in the assay with Spodoptera frugiperda is 100%.

Regarding `Cc1nc([C@H](C)Nc2nc3cc(C(F)(F)F)cc(C(F)(F)F)c3o2)n(-c2ncccn2)n1` [Example I-012], in the assay with Boophilus microplus, the pest or weed control at 0.004 mg is 100% and the pest or weed control at 0.02 mg stood at 100%. In the assay on Ctenocephalides felis, the mortality at 100 ppm turned out to be 100%. For the same compound, the mortality at 500 g/ha in the assay on Spodoptera frugiperda was 100%.

In the case of `C[C@H](Nc1nc2cc(C(F)(F)F)cc(C(F)(F)F)c2o1)c1ncnn1-c1ccc(C#N)cn1` [Example I-026], in the assay with Boophilus microplus, the pest or weed control at 0.004 mg came out at 100% and the pest or weed control at 0.02 mg is 100%. Besides, in assay [1], the pest or weed control at 5 µg/cm2 is 100%. Moreover, the mortality at 100 ppm with Ctenocephalides felis worked out at 100%. The pest or weed control at 160 µg/disc, 500 g/ha in the assay with Diabrotica balteata was 100%. Further, in the assay with Spodoptera frugiperda, the mortality at 100 g/ha came out at 100% and the mortality at 500 g/ha came to 100%.

Regarding `C[C@H](Nc1nc2cc(C(F)(F)F)c(Cl)cc2o1)c1ncnn1-c1ccc(Cl)cn1` [Example I-033], the pest or weed control at 5 µg/cm2 in assay [1] was 100%. Moreover, the mortality at 100 ppm in the assay on Ctenocephalides felis turned out to be 90%. Further, the mortality at 500 g/ha with Spodoptera frugiperda amounted to 100%.

As to `C[C@H](Nc1nc2cc(C(F)(F)F)cc(Cl)c2o1)c1ncnn1-c1ncc(Br)s1` [Example I-035, N-{(1S)-1-[1-(5-bromo-1,3-thiazol-2-yl)-1H-1,2,4-triazol-5-yl]ethyl}-7-chloro-5-(trifluoromethyl)-1,3-benzoxazol-2-amine], the pest or weed control at 0.004 mg with Boophilus microplus turned out to be 80%. In the assay on Ctenocephalides felis, this compound came in with a mortality at 100 ppm of 100%. Also, the pest or weed control at 100 g/ha in the assay on Diabrotica balteata turned out to be 100%.

On to `C[C@H](Nc1nc2cc(C(F)(F)F)cc(Cl)c2o1)c1ncnn1-c1cnc(C#N)cn1` [Example I-041, 5-{5-[(1S)-1-{[7-Chlor-5-(trifluormethyl)-1,3-benzoxazol-2-yl]amino}ethyl]-1H-1,2,4-triazol-1-yl}pyrazin-2-carbonitril], for which the pest or weed control at 5 µg/cm2 in assay [1] turned out to be 80%. In addition, the mortality at 100 ppm in the assay with Ctenocephalides felis is 90%. The pest or weed control at 100 g/ha with Diabrotica balteata stood at 100%.

With `C[C@H](Nc1nc2cc(C(F)(F)F)cc(Cl)c2o1)c1ncnn1-c1ncc(Br)cn1` [Example I-044, N-{(1S)-1-[1-(5-Brompyrimidin-2-yl)-1H-1,2,4-triazol-5-yl]ethyl}-7-chlor-5-(trifluormethyl)-1,3-benzoxazol-2-amin], in the assay on Boophilus microplus, the pest or weed control at 0.004 mg amounted to 100%. The pest or weed control at 5 µg/cm2 in assay [1] was determined as 100%. Besides, the mortality at 100 ppm with Ctenocephalides felis is 100%. In the assay with Diabrotica balteata, the pest or weed control at 100 g/ha turned out to be 100%. For the same compound, the mortality at 100 g/ha in the assay with Spodoptera frugiperda amounted to 100%.

As for `C[C@H](Nc1nc2cc(C(F)(F)F)cc(Cl)c2o1)c1ncnn1-c1nccs1` [Example I-050, 7-Chlor-N-{(1S)-1-[1-(1,3-thiazol-2-yl)-1H-1,2,4-triazol-5-yl]ethyl}-5-(trifluormethyl)-1,3-benzoxazol-2-amin], in the assay on Boophilus microplus, the pest or weed control at 0.004 mg is 80% and the pest or weed control at 0.02 mg turned out to be 80%. Moreover, the mortality at 100 ppm in the assay with Ctenocephalides felis came to 90%.

Take `Cc1nc([C@H](C)Nc2nc3cc(C(F)(F)F)cc(Br)c3o2)n(-c2ncccn2)n1` [Example I-053, 7-Bromo-N-{(1S)-1-[3-methyl-1-(pyrimidin-2-yl)-1H-1,2,4-triazol-5-yl]ethyl}-5-(trifluormethyl)-1,3-benzoxazol-2-amin]: in the assay with Boophilus microplus, the pest or weed control at 0.004 mg was determined as 100% and the pest or weed control at 0.02 mg stood at 100%. This compound registered a mortality at 100 ppm in the assay with Ctenocephalides felis of 100%. For the same compound, the pest or weed control at 160 µg/disc, 500 g/ha with Diabrotica balteata was found to be 100%.

`C[C@H](Nc1nc2cc(C(F)(F)F)c(Cl)cc2o1)c1ncnn1-c1ncc(C2COC2)cn1` [Example I-056, 6-Chloro-N-[(1S)-1-{1-[5-(oxetan-3-yl)pyrimidin-2-yl]-1H-1,2,4-triazol-5-yl}ethyl]-5-(trifluoromethyl)-1,3-benzoxazol-2-amine]: in the assay with Boophilus microplus, the pest or weed control at 0.004 mg came out at 80% and the pest or weed control at 0.02 mg is 100%. In addition, the pest or weed control at 5 µg/cm2 in assay [1] worked out at 80%. For the same compound, the mortality at 100 ppm in the assay on Ctenocephalides felis turned out to be 100%.

As for `C[C@H](Nc1nc2cc(Cl)c(SC3CC3)cc2o1)c1ncnn1-c1ncccn1` [Example I-072, 5-Chlor-6-(cyclopropylsulfanyl)-N-{(1S)-1-[1-(pyrimidin-2-yl)-1H-1,2,4-triazol-5-yl]ethyl}-1,3-benzoxazol-2-amin], the pest or weed control at 5 µg/cm2 in assay [1] is 90%. In addition, the mortality at 100 ppm in the assay on Ctenocephalides felis was determined as 100%.

For `CCSc1cc2oc(N[C@@H](C)c3ncnn3-c3ncccn3)nc2cc1Cl` [Example I-073, 5-Chor-6-(ethylsulfanoyl)-N-{(1S)-1-[1-(pyrimidin-2-yl)-1H-1,2,4-triazol-5-yl]ethyl}-1,3-benzoxazol-2-amin], in the assay on Boophilus microplus, the pest or weed control at 0.02 mg amounted to 100%. Also, the pest or weed control at 5 µg/cm2 in assay [1] was 100%. Also, in the assay with Ctenocephalides felis, the mortality at 100 ppm turned out to be 90%.

In the case of `C[C@H](Nc1nc2cc(C(C)(C)C)cc(Cl)c2o1)c1ncnn1-c1ncccn1` [Example I-075, 5-tert-Butyl-7-chlor-N-{(1S)-1-[1-(pyrimidin-2-yl)-1H-1,2,4-triazol-5-yl]ethyl}-1,3-benzoxazol-2-amin], in the assay with Boophilus microplus, the pest or weed control at 0.004 mg is 100% and the pest or weed control at 0.02 mg amounted to 100%. The compound also yielded a mortality at 100 ppm in the assay with Ctenocephalides felis of 80%.

Consider `CSc1cc2oc(N[C@@H](C)c3ncnn3-c3ncccn3)nc2cc1Cl` [Example I-076, 5-Chlor-6-(methylsulfanyl)-N-{(1S)-1-[1-(pyrimidin-2-yl)-1H-1,2,4-triazol-5-yl]ethyl}-1,3-benzoxazol-2-amin], for which, in the assay on Boophilus microplus, the pest or weed control at 0.004 mg was 100% and the pest or weed control at 0.02 mg stood at 100%. The pest or weed control at 5 µg/cm2 in assay [1] stood at 90%. Also, the mortality at 100 ppm in the assay with Ctenocephalides felis turned out to be 100%.

`C[C@H](Nc1nc2cc(OC(F)(F)F)cc(Cl)c2o1)c1ncnn1-c1ncc(Br)cn1` [Example I-078, N-{(1S)-1-[1-(5-Brompyrimidin-2-yl)-1H-1,2,4-triazol-5-yl]ethyl}-7-chlor-5-(trifluormethoxy)-1,3-benzoxazol-2-amin] yielded a mortality at 100 ppm in the assay with Ctenocephalides felis of 100%. Further, the pest or weed control at 100 g/ha in the assay on Diabrotica balteata is 100%.

As to `C[C@H](Nc1nc2c(C(F)(F)F)cc(Br)cn2n1)c1ncnn1-c1ncccn1` [Example I-095, 6-bromo-N-{(1S)-1-[1-(pyrimidin-2-yl)-1H-1,2,4-triazol-5-yl]ethyl}-8-(trifluoromethyl)[1,2,4]triazolo[1,5-a]pyridin-2-amine], the pest or weed control at 5 µg/cm2 in assay [1] amounted to 80%. Moreover, the mortality at 100 ppm in the assay on Ctenocephalides felis came to 100%.

For orientation: mortality means the share of the test organisms that died.
